The subject of the assay is BDF1 mice, P388 leukemia ip, median survival T/C. Put plainly: NCI In Vivo Anticancer Drug Screen. Data for tumor model P388 Leukemia (intraperitoneal) in B6D2F1 (BDF1) mice. The following applies: endpoint: median survival time, higher = longer survival. In a few lines:
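Each value expresses how treatment altered survival: treated-mouse outcome over vehicle-mouse outcome, both groups bearing the transplanted tumour.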

[1] abbreviates: dose: 25.0 mg/kg/injection, schedule: Q04DX003 (ip), vehicle: saline.
Setting [2] is: dose: 50.0 mg/kg/injection, schedule: Q04DX003 (ip), vehicle: saline.
The mark [3] stands for this setting: dose: 100.0 mg/kg/injection, schedule: Q04DX003 (ip), vehicle: saline.
Setting [4] is: dose: 200.0 mg/kg/injection, schedule: Q04DX003 (ip), vehicle: saline.
Where [5] appears, read: dose: 200.0 mg/kg/injection, schedule: Q01DX001 (ip), vehicle: saline with Tween-80.
The mark [6] stands for this setting: dose: 400.0 mg/kg/injection, schedule: Q01DX001 (ip), vehicle: saline with Tween-80.
[7] abbreviates: dose: 50.0 mg/kg/injection, schedule: Q01DX009 (ip), vehicle: Klucel (hydroxypropylcellulose) (HPC).
Setting [8] is: dose: 6.25 mg/kg/injection, schedule: Q01DX009 (ip), vehicle: saline.
[9] abbreviates: dose: 12.5 mg/kg/injection, schedule: Q01DX009 (ip), vehicle: saline.
[10] abbreviates: dose: 50.0 mg/kg/injection, schedule: Q01DX009 (ip), vehicle: saline.
Where [11] appears, read: dose: 100.0 mg/kg/injection, schedule: Q01DX009 (ip), vehicle: saline.
Where [12] appears, read: dose: 400.0 mg/kg/injection, schedule: Q04DX003 (ip), vehicle: saline.
Where [13] appears, read: dose: 25.0 mg/kg/injection, schedule: Q04DX003 (ip), vehicle: saline with Tween-80.
The mark [14] stands for this setting: dose: 100.0 mg/kg/injection, schedule: Q04DX003 (ip), vehicle: saline with Tween-80.
The mark [15] stands for this setting: dose: 200.0 mg/kg/injection, schedule: Q04DX003 (ip), vehicle: saline with Tween-80.
[16] abbreviates: dose: 50.0 mg/kg/injection, schedule: Q04DX003 (ip), vehicle: saline with Tween-80.
Setting [17] is: dose: 25.0 mg/kg/injection, schedule: Q01DX009 (ip), vehicle: Klucel (hydroxypropylcellulose) (HPC).
The mark [18] stands for this setting: dose: 12.5 mg/kg/injection, schedule: Q04DX003 (ip), vehicle: saline with Tween-80.

T/C data for 18 molecules are collected here from PubChem BioAssay AID328 (DTP/NCI, 2004).

The structures appear in SMILES notation. Where “and” joins values, the source holds several entries; their conditions need not be identical. Equal entries are not always repeated. Toxic doses and inconclusive results are not listed.

For `COc1cc2c3c(c1)-c1c(ccc(OC)c1Oc1nnnn1-c1ccccc1)CC3N(C)CC2` (centres undefined), the T/C by setting is: (dose: 12.5 mg/kg/injection, schedule: Q04DX003 (ip), vehicle: saline) 108 % of control; under setting [1], 115 % of control; under setting [2], 115 % of control; under setting [3], 108 % of control; under setting [4], 115 % of control.
For the molecule `Clc1cc(C(Cl)(Cl)Cl)ccc1C(Cl)(Cl)Cl`, the T/C is 100 % of control (dose: 100.0 mg/kg/injection, schedule: Q01DX001 (ip), vehicle: saline with Tween-80); 104 % of control under setting [5]; 95 % of control under setting [6].
For the molecule `O=NN(CCCl)C(=O)Nc1c[nH]c2ccccc12`, the T/C is 92 % of control under setting [7]; 107 % of control (dose: 100.0 mg/kg/injection, schedule: Q01DX009 (ip), vehicle: Klucel (hydroxypropylcellulose) (HPC)); 108 % of control (dose: 200.0 mg/kg/injection, schedule: Q01DX009 (ip), vehicle: Klucel (hydroxypropylcellulose) (HPC)); 117 % of control (dose: 400.0 mg/kg/injection, schedule: Q01DX009 (ip), vehicle: Klucel (hydroxypropylcellulose) (HPC)).
Consider `C=C(C)C12OC3(c4ccccc4)OC1C1C4OC4(CO)C(O)C4(O)C(=O)C(C)=CC4C1(O3)C(C)C2OC(=O)/C=C/C=C/CCCCC` (centres undefined), for which the T/C by setting is: (dose: 6.3 micrograms/kg/injection, schedule: Q## X009 (ip), vehicle: saline + alcohol) 107 % of control; (dose: 12.5 micrograms/kg/injection, schedule: Q## X009 (ip), vehicle: saline + alcohol) 103 % of control; (dose: 25.0 micrograms/kg/injection, schedule: Q## X009 (ip), vehicle: saline + alcohol) 103 % of control; (dose: 200.0 micrograms/kg/injection, schedule: Q## X009 (ip), vehicle: saline + alcohol) 106 % of control.
Regarding `[O]=[Cr](=[O])([OH])[O][Cr](=[O])(=[O])[OH]`, the T/C reads like this: under setting [8], 113 % of control; under setting [9], 100 % of control.
For the molecule `CCOC(=O)N1C=Cn2c(cnc2C)C1O` (centres undefined), the T/C is 105 % of control under setting [10]; 110 % of control (dose: 50.0 mg/kg/injection, schedule: Q01DX009 (ip), vehicle: water); 97 % of control under setting [11]; 103 % of control (dose: 100.0 mg/kg/injection, schedule: Q01DX009 (ip), vehicle: water); 100 % of control under setting [3]; 96 % of control (dose: 100.0 mg/kg/injection, schedule: Q04DX003 (ip), vehicle: water). In addition, the T/C was 94 % of control (dose: 200.0 mg/kg/injection, schedule: Q01DX009 (ip), vehicle: water); 102 % of control under setting [4]; 96 % of control (dose: 200.0 mg/kg/injection, schedule: Q04DX003 (ip), vehicle: water); 94 % of control (dose: 400.0 mg/kg/injection, schedule: Q01DX009 (ip), vehicle: water); 93 % of control under setting [12]; 88 % of control (dose: 400.0 mg/kg/injection, schedule: Q04DX003 (ip), vehicle: water).
In the case of `CCN(CC)CCOC(=O)C(c1ccccc1)C1(O)CCCC(C)C1` (centres undefined), the T/C (dose: 50.0 mg/kg/injection, schedule: Q01DX005 (ip), vehicle: saline) was 98 % of control; the T/C (dose: 100.0 mg/kg/injection, schedule: Q01DX005 (ip), vehicle: saline) was 90 % of control; the T/C (dose: 200.0 mg/kg/injection, schedule: Q01DX005 (ip), vehicle: saline) was 110 % of control.
Regarding `Cc1c(CNc2ccc(C(=O)NC(CC(=O)O)C(=O)O)cc2)ccc2nc(N)nc(N)c12` (centres undefined), the T/C under setting [8] was 100 % of control; the T/C under setting [9] is 90 % of control; the T/C (dose: 16.5 mg/kg/injection, schedule: Q04DX003 (ip), vehicle: saline with Tween-80) was 254 % of control; the T/C under setting [13] was 272 % of control; the T/C (dose: 37.5 mg/kg/injection, schedule: Q04DX003 (ip), vehicle: saline with Tween-80) is 104 % of control.
As for `NC(=O)C(CC(=O)OCc1ccccc1)NC(=O)OCc1ccccc1` (centres undefined), the T/C is 100 % of control under setting [14]; 95 % of control under setting [15]; 104 % of control (dose: 400.0 mg/kg/injection, schedule: Q04DX003 (ip), vehicle: saline with Tween-80).
As for `c1ccc2c(SSc3cccc4ccccc34)cccc2c1`, the T/C is 108 % of control under setting [13], 108 % of control under setting [16], 112 % of control under setting [14] and 103 % of control under setting [15].
Take `N#CCNC(=O)c1ccccc1`: the T/C reads like this: (dose: 6.0 mg/kg/injection, schedule: Q01DX009 (ip), vehicle: Klucel (hydroxypropylcellulose) (HPC)) 88 % of control; (dose: 12.0 mg/kg/injection, schedule: Q01DX009 (ip), vehicle: Klucel (hydroxypropylcellulose) (HPC)) 88 % of control; under setting [17], 91 % of control; (dose: 25.0 mg/kg/injection, schedule: Q04DX003 (ip), vehicle: Klucel (hydroxypropylcellulose) (HPC)) 110 % of control; (dose: 50.0 mg/kg/injection, schedule: Q04DX003 (ip), vehicle: Klucel (hydroxypropylcellulose) (HPC)) 110 % of control; (dose: 100.0 mg/kg/injection, schedule: Q04DX003 (ip), vehicle: Klucel (hydroxypropylcellulose) (HPC)) 90 % of control.
For the molecule `CCOC(=O)c1cc[nH]c1CC(=O)NC`, the T/C under setting [5] is 112 % of control and the T/C under setting [6] was 112 % of control.
Take `O=[N+]([O-])/C=C/c1ccc2ccccc2n1`: the T/C runs as follows: (dose: 1.25 mg/kg/injection, schedule: Q01DX009 (ip), vehicle: saline with Tween-80) 103 % of control; (dose: 2.5 mg/kg/injection, schedule: Q01DX009 (ip), vehicle: saline with Tween-80) 92 % of control and 94 % of control; (dose: 5.0 mg/kg/injection, schedule: Q01DX009 (ip), vehicle: saline with Tween-80) 94 % of control and 110 % of control; (dose: 10.0 mg/kg/injection, schedule: Q01DX009 (ip), vehicle: saline with Tween-80) 94 % of control and 115 % of control; under setting [18], 111 % of control; (dose: 20.0 mg/kg/injection, schedule: Q01DX009 (ip), vehicle: saline with Tween-80) 94 % of control. Further, the T/C under setting [13] is 102 % of control.
On to `O=S(=O)(O)c1ccc(Br)cc1`, for which the T/C was 92 % of control under setting [11]; 115 % of control under setting [3]; 107 % of control (dose: 200.0 mg/kg/injection, schedule: Q01DX009 (ip), vehicle: saline); 110 % of control under setting [4]; 100 % of control (dose: 400.0 mg/kg/injection, schedule: Q01DX009 (ip), vehicle: saline); 115 % of control under setting [12].
As to `CC(=O)C(C#N)c1ccccc1` (centres undefined), the T/C is 118 % of control (dose: 12.5 mg/kg/injection, schedule: Q01DX009 (ip), vehicle: Klucel (hydroxypropylcellulose) (HPC)); 109 % of control under setting [17]; 90 % of control under setting [7].
As for `Clc1ccc(-c2cc(=[N+]3CCCCC3)ss2)cc1`, the T/C is, setting by setting: (dose: 6.25 mg/kg/injection, schedule: Q04DX003 (ip), vehicle: saline with Tween-80) 92 % of control; under setting [18], 102 % of control and 103 % of control; (dose: 25.0 mg/kg/injection, schedule: Q01DX009 (ip), vehicle: saline with Tween-80) 110 % of control; under setting [13], 93 % of control and 94 % of control; (dose: 50.0 mg/kg/injection, schedule: Q01DX009 (ip), vehicle: saline with Tween-80) 110 % of control; under setting [16], 98 % of control and 99 % of control and 119 % of control. Besides, the T/C under setting [14] is 100 % of control and 102 % of control and 114 % of control.
In the case of `CCn1c(O)c(C=N)c(=O)n(CC)c1=O`, the T/C was 100 % of control (dose: 25.0 mg/kg/injection, schedule: Q01DX009 (ip), vehicle: saline); 96 % of control under setting [1]; 104 % of control under setting [10]; 100 % of control under setting [2]; 103 % of control under setting [3].
With `COC(=O)C(NC(=O)c1ccccc1)=C(COC(C)=O)COC(C)=O`, the T/C (dose: 100.0 mg/kg/injection, schedule: Q04DX003 (ip), vehicle: saline sonified) was 95 % of control; the T/C (dose: 200.0 mg/kg/injection, schedule: Q04DX003 (ip), vehicle: saline sonified) was 100 % of control; the T/C (dose: 400.0 mg/kg/injection, schedule: Q04DX003 (ip), vehicle: saline sonified) is 110 % of control.
